Converted amounts (≈) assume the structure as drawn.
Assays:
[1] = tested on: HIV-1 isolates IIIB and/or RF in MT-2 cells; test: SRI primary anti-HIV screen, MTT assay of inhibition of HIV-induced cell killing in MT2 cells; format: cell-based; settings: Human immunodeficiency virus 1, IIIB, MT2, read-out: SRI MT2 IC50 ng/ml, MT2 cells
Description: I. Primary Drug Screening of Anti-HIV Compounds at Southern Research Institute (SRI) (Results recorded in Table 1 are designated “SRI CEM (ng/ml)” or “SRI MT2 (ng/ml)”)
A. Principle of MTT Assay:
SRI has an established program for the primary antiviral analysis of compounds in microtiter assays which measures the ability of a selected compound to inhibit HIV-induced cell killing. This assay involves the conversion of the tetrazolium dye MTT to a colored formazan product by mitochondrial enzymes in metabolically active cells. This assay system is used at SRI to screen over 30,000 compounds per year. Briefly, the assay involves the infection of CEM or MT2 cells in round bottom 96-well plates. The compound of interest is added just prior to infection. Following 6 days of incubation at 37° C. the plates are stained with MTT. The results of the assay are quantitated spectrophotometrically on a Molecular Devices Vmax plate reader. The data are analyzed by linear regression utilizing an in-house software program to calculate antiviral activity (IC25, IC50, IC95) and toxicity (TC25, TC50, TC95) as well as other values.
Primary antiviral assays are routinely performed in CEM or MT-2 cells.
B. Standard Screening Assays in CEM and MT-2 Cells
1. Compound dilution and delivery to the plates
Drugs are solubilized in the appropriate vehicle such as distilled water or DMSO if necessary. Latex gloves, lab coats and masks are used during all phases of the handling process to prevent exposure to potentially harmful agents. The drug is prepared at the appropriate concentration and stored at −20° C. until used by the screening laboratory. The first dilution of each compound is made in a dilution tube with medium to yield a concentration two-fold that of the highest test concentration. Sterile titer tubes are then used to make serial one half-log dilutions of each compound. Following drug dilution, the diluted compound is added to the appropriate well of a 96-well microtiter plate. […] When testing includes only six dilutions, two drugs can be assayed on a single microtiter plate. The drugs are added to the plate in a final volume of 100 microliters.
During the time the drug dilutions are prepared, cells are washed and counted. Viability is monitored by trypan blue dye exclusion and assays are not performed if the viability falls below 90%. Cells are maintained in an exponential growth phase and are split 1:2 on the day prior to assay to assure exponential growth rate.
For the primary screen, the cell lines utilized are CEM and MT-2. Unless otherwise indicated, the medium used is RPMI 1640 with 10% heat-inactivated fetal calf serum (FBS), glutamine and antibiotics.
Cells are propagated at 37° C. in an atmosphere of 5% CO2 in air. The virus employed for this work is HIV-1 isolates IIIB and/or RF, which are prepared by an acute infection process.
Briefly, virus-infected cells are pelleted on a daily basis beginning at three days post-infection until the virus has killed all of the cells in the culture. Reverse transcriptase activity and p24 ELISA are used to identify pools with the greatest amout of virus.
These 24-hour harvests are pooled, filtered and frozen at −90° C. Prior to use in the assay, the infectious pool of virus is titered on all available cell lines in order to determine the amount of virus required in the antiviral assay.
In general, pools produced by the acute infection method require the addition of one microliter of infectious virus per well resulting in the screening of drugs at a multiplicity of infection of 0.01. In this manner, enough virus is prepared and frozen to complete over one thousand microtiter plates, allowing the testing of up to two thousand compounds from a single stock of infectious virus. The use of a single stock of virus for a long period of testing has very favorable effects on the repeatability of the assay systems. […]

[2] = tested on: Viral SN123 infected CEM cells; settings: Human immunodeficiency virus 1, CCRF-CEM, values in parentheses are 35B in same assay
Description: Purpose: To determine IC50 CC50 for compounds:
Media A [1% DMSO] (100 microliters DMSO+9.9 ml media A)
CEM cells @ [1×10^4] cells/ml (4 plate=40 ml) (6 plate=60 ml)
(need 70 microliters of each)
A-D at [10 mM] in 100% DMSO
4 or 6 u-bottom 96-well plates
4 flat bottom 96-well plates for dilutions
8-10 boxes of sterile costar tips
Approximately 10 reagent trays
1000 cells/well=1×10^4 cells/ml=1000 cells/100 microliters 200 microliters=total volume in a well
Cell Preparation and Plating of Cells, Media A and Media A (1% DMSO)
a. Number a 96-well tissue culture plate for each compound tested, one for a control plate, and one for the control compound.
b. Count cells on hemacytometer and resuspend them in 40 ml or 80 ml of Media A at a concentration of [1×10^4]0 cells/ml.
Counting Cells on a Hemacytomer:
Label two 1.8 ml nuc tubes 1 and 2.
Put 0.5 ml of well mixed CEM cells (in growth phase) in tube 1.
Put 50 micoliters PBS and 40 microliters of trypan blue into tube 2.
Mix up the cells in tube 1 then remove 10 microliters of cells and put them into tube 2.
Mix well in tube 2, then remove 10 microliters of the stained cells and put them on the hemacytometer.
Count the number of cells in the center square of the hemacytometer with the microscope set on 10×.
The concentration of the stock CEM's in cells/ml is as follows:
Cells counted×1×10^5=Concentration of CEM's in [cells/ml].
c. Add 200 microliters Media A to: A1 of places 2-6. These are Blanks. A4-H4 of plate 1. These are Blanks.
d. Add 5 microlicers Media A to all wells of Rows A-D of plates 2-6 except A1 (the top half of each plate).
e. Add 50 microliters of Media A to wells A1-D3 of Plate 1 (the top half of the plate).
f. Add 50 microliters Media A[l% DMSO] to all wells of Columns 1-3 of plate 1.
This puts 1000 cells/well.
h. Put plates in an incubator while doing drug dilutions.
Preparation Control and Test Drugs
(1) Put 60 microliters of DMSO into all wells of Columns 2-12, Rows A-E.
(3) Put 70 microliters of A [10 mM] at 100% DMSO into well B1.
(4) Put 70 microliters of B [10 mM] at 100% DMSO into well C1.
(5) Put 70 microliters of C [10 mM] at 100% DMSO into well D1.
(6) Put 70 microliters of D [10 mM] at 100% DMSO into well E1.
Change tips before each dilution.
(1) In rows A-E of another plate make a row for the first 1:10 dilution to correspond to each compound's 100% DMSO row.
A into Row B for the first 1:10 dilution.
B into Row C for the first 1:10 dilution.
C into Row D for the first 1:10 dilution.
D into Row E for the first 1:10 dilution.
(2) Put 180 microliters of media A into all wells of rows A-E corresponding to the 100% DMSO rows. 2.5 ml needed per row.
(3) Remove 20 microliters from all wells of each row of the 100% DMSO rows and transfer it to the corresponding 1:10 row.
(1) Make a plate for every 3 compounds to be tested.
Use 20 ml of media A per plate.
(3) Transfer 25 microliters of each compound from the row in the 1:10 dilution to the corresponding two rows on the 1:100 dilution plate changing tips before each transfer.
Addition of Viral SN123 to Plates
a. Thaw Sn123 in 37° C. water bath for approximately 10 minutes.
b. Dilute Sn123 1:16 by adding 1 ml of Sn123 to 15 ml of media A.
c. Add 50 microliters of Sn123 [1:16] to wells E1-H12 of plates 2-6 and to wells E1-H3 of plate 1.
Addition of Drugs to Plates
a. Add 50 microliters of the control and test drugs from the rows in the 1:100 dilution plates to the appropriate rows in the final plates (changing tips before each transfer). One row in the 1:100 plate will do 4 rows in the final plate. Leave A1 blank.
b. Incubate all plates 7 days at 37° C. 5% CO2.
c. Do Xtt protocol on day 7 as follows:
d. Preparation of Xtt/PMS Solution: (4 plate=20 ml) (6 plate=30 ml)
100 microliters [100 mM] PMS+4.9 ml PBS=PMS at [2 mM]
(2) Heat 500 ml of H2O in microwave for 5 minutes on high.
(3) Put 20 or 30 ml of phenol red RPMI in a 50 ml centrifuge tube.
(4) Put the RPMI in the beaker of hot water.
(5) Add 20 or 30 mg of XTT to the warmed up RPMI.

`Cc1c(O)cccc1C(=O)N[C@@H](Cc1ccccc1)[C@H](O)CN1CCN(Cc2cccnc2)C[C@H]1C(=O)NC(C)(C)C` [Example 26, [2S-(2R*,2′S*,3′R*)]-1-[2′-Hydroxy-3′-phenylmethyl-4′-aza-5′-oxo-5′-(2″-methyl-3″-hydroxyphenyl)pentyl]-4-(pyrid-3′″-ylmethyl) piperazine-2-N-t-butylcarboxamide] gave an IC50 [1] of 49 ng/mL (≈ 0.0854 µM), an IC50 ([2]; read-out: Whole cell IC50 nM, CEM cells) of 56 nM and an IC90 ([2]; read-out: Whole cell IC90 nM, CEM cells) of 166 nM.

From patent US20030216569A1, “Method of making HIV protease inhibitors” (priority 1993, published 2003)
